# Laboratory results: BindingDB's records for doi:10.7270/Q2CN728N (Nmmlsc, 2008)
# Molecular target: T1, Bcl-2-related protein A1 (Homo sapiens, UniProt Q16548)
# T1 sequence (Q16548 whole entry): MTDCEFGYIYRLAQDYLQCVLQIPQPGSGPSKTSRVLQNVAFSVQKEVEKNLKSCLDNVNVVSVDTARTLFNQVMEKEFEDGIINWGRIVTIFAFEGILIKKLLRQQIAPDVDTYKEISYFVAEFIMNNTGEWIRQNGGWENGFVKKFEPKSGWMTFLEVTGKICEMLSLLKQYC
# Test: Bfl-1/Bim complex disruptors – biochemical, multiplexed, bead-based flow cytometry, dose response (AID 1320)
# Conditions: inactive by the depositor's call; pH 7.4; 4 °C
row,SMILES,EC50 [µM]
1,O=C(NCCO)c1ccc2nc(-c3ccco3)c(-c3ccco3)nc2c1 [SMR000121771],3.18
2,"COc1cc(/N=c2/ssnc2Cl)cc(OC)c1 [4-chloro-N-(3,5-dimethoxyphenyl)-5-dithiazolimine]",15
3,COc1ccc(N2C(=O)C(=Cc3cccs3)NC2=S)cc1,3.86
4,"CCOC(=O)CSC1=NC(=O)/C(=C/c2ccc(Br)cc2)S1 [ethyl 2-[[(5Z)-5-[(4-bromophenyl)methylidene]-4-oxo-1,3-thiazol-2-yl]sulfanyl]acetate]",0.55
5,CCOC(=O)c1ccc(/N=c2/ssnc2Cl)cc1,37.5
6,N#Cc1cccc(/N=c2/ssnc2Cl)c1 [3-[(4-chloro-5-dithiazolylidene)amino]benzonitrile],14.5
7,Cc1cc2n(c1)CCn1c(C)ccc1-2 [MLS000104384],12.6
8,CCc1cccc(CC)c1-n1c(-c2cccnc2)n[nH]c1=S [MLS001006773],1.09
9,O=C(N[N-][CH+]c1ccc(-c2ccccc2[N+](=O)[O-])o1)c1cncc(Br)c1 [5-bromo-N-[[5-(2-nitrophenyl)furan-2-yl]methylideneamino]pyridine-3-carboxamide],33.6
10,CCC(=O)OCCNc1cc(Sc2nccn2C)c2nonc2c1[N+](=O)[O-] [SMR000207033],26.8
11,c1ccc(C2=Nc3cccc4cccc(c34)N2)cc1,26.2
12,COc1ccccc1-n1c(-c2ccccc2)c[nH]c1=S [MLS001007615],0.61
13,COc1ccc(C2=Nc3cccc4cccc(c34)N2)cc1 [MLS000551954],6.49
14,CSc1nnc2c3cc(C)ccc3n(Cc3ccccc3)c2n1 [SMR000046397],22.7
15,"CNc1ccc(Br)cc(C(=O)/C=C/c2cccc(OC)c2)c1=O [4-bromo-2-[3-(3-methoxyphenyl)acryloyl]-7-(methylamino)-2,4,6-cycloheptatrien-1-one]",17.5
16,CCOC(=O)c1cc2c(=O)n3ccccc3nc2n(Cc2ccco2)/c1=N/C(=O)c1ccccc1OC [MLS000729830],34.5
17,CCOc1cc(C2Nc3cccc4cccc(c34)N2)ccc1O [MLS000068595],37.5
18,Cc1ccc(-c2cc(-c3ccc4c(c3)OCO4)c(C#N)c(N)n2)o1 [SMR000001529],1.88

row,SMILES,EC50 [µM]
1,CCOC(=O)c1c(NC(C)=O)sc2c(O)c(Br)cc(Br)c12,17.8
2,Nc1ccc(C2=Nc3cccc4cccc(c34)N2)cc1 [SMR000175908],16.1
3,O=C1CSc2ccc(C(=O)Nc3cccc(S(=O)(=O)Nc4ccc(Br)cc4)c3)cc2N1,5.81
4,COc1ccc(OC)c(-n2c(S)nnc2-c2ccc(C)cc2)c1 [SMR000155418],3.05
5,O=C1C(=Cc2ccco2)NC(=S)N1c1ccccc1 [(5E)-5-(furan-2-ylmethylidene)-3-phenyl-2-sulfanylideneimidazolidin-4-one],14.8
6,"Cc1c(/N=C2\C=CC(=O)c3ccccc32)c(=O)n(-c2ccccc2)n1C [1,5-dimethyl-4-[(4-oxo-1-naphthalenylidene)amino]-2-phenyl-3-pyrazolone]",53.5
7,CCOc1ccc(-n2cc(-c3ccc(OC)c(OC)c3)[nH]c2=S)cc1,0.68
8,CCOc1cc(S(=O)(=O)Nc2ccccn2)ccc1F [3-ethoxy-4-fluoro-N-(2-pyridinyl)benzenesulfonamide],44.5
9,Cc1cccc(OCC(=O)NCC(=O)NN=Cc2cc(Br)ccc2OCc2ccccc2)c1 [N-[(5-bromanyl-2-phenylmethoxy-phenyl)methylideneamino]-2-[2-(3-methylphenoxy)ethanoylamino]ethanamide],4.63
10,CNc1ccc(Br)cc(C(=O)/C=C/c2cc(OC)ccc2OC)c1=O [SMR000115626],15
11,CCN(CC)c1ccc(NC(=O)c2ccccc2F)cc1S(=O)(=O)Nc1ccccc1OC [SMR000241522],12.2
12,Cc1ccc(/C=C2/NC(=O)N(Cc3ccccc3)C2=O)o1 [MLS000698643],2.73
13,"COc1ccc(N2C(=O)C(Cl)=C(Oc3cccc(OC)c3)C2=O)cc1 [3-chloro-4-(3-methoxyphenoxy)-1-(4-methoxyphenyl)-1H-pyrrole-2,5-dione]",0.68
14,COC(=O)CCC(=O)Nc1sc(Cc2ccccc2)c(C)c1C(N)=O [MLS000708819],0.97
15,CN1CCN(C2=C(Cl)C(=O)C(c3cnc(N4CCCCC4)s3)=C(Cl)C2=O)CC1,0.01
16,CCN(CC)c1ccc(-c2nn3c(-c4ccccc4OC)nnc3s2)cc1,40.8
17,"O=C(Nc1nnc(COc2ccc(Cl)cc2)s1)c1ccco1 [N-[5-[(4-chloranylphenoxy)methyl]-1,3,4-thiadiazol-2-yl]furan-2-carboxamide]",8.07

# Same assay, conditions: pH 7.4; 4 °C
row,SMILES,EC50 [µM]
1,CN1CCc2cccc3c2[C@@H]1Cc1ccc(O)c(O)c1-3,15.1
2,CCN1/C(=C/c2ccc3cc(C)ccc3[n+]2CC)Sc2cc(C)c(C)cc21,16.9
3,c1ccc(-c2nc(N3CCOCC3)[s+]n2-c2ccccc2)cc1,0.05
4,CNCc1ccccc1Sc1ccc(O)c(O)c1 [SMR000230497],31.7
5,"Cc1cccc(C(=O)/N=c2\c(C#N)cc3c(=O)n4cccc(C)c4nc3n2Cc2ccco2)c1 [N-[3-cyano-1-(furan-2-ylmethyl)-10-methyl-5-oxodipyrido[3,4-c:1',2'-f]pyrimidin-2-ylidene]-3-methylbenzamide]",9.69
6,Clc1nss/c1=N\c1ccc(Br)cc1 [N-(4-bromophenyl)-4-chloro-5-dithiazolimine],9.18
7,CCOC(=O)CSC1=NC(=O)/C(=C/c2ccc(OC)cc2)S1 [2-[[(5Z)-5-[(4-methoxyphenyl)methylidene]-4-oxo-2-thiazolyl]thio]acetic acid ethyl ester],1.12
8,COc1cc(/N=c2/ssnc2Cl)cc(OC)c1OC [SMR000025034],3.63
9,"Cc1cccc(NC2=NC(=O)C(=CC=Cc3ccco3)S2)c1C [2-(2,3-Dimethyl-phenylamino)-5-[(E)-3-furan-2-yl-prop-2-en-(Z)-ylidene]-thiazol-4-one]",3.17
10,Fc1ccc(C2=Nc3cccc4cccc(c34)N2)cc1 [MLS000687139],7.63
11,O=C(Nc1ccc2nc(-c3ccco3)c(-c3ccco3)nc2c1)N1CCN(c2ccccn2)CC1,5.94
12,"O=C(/C=C/c1ccccc1Cl)c1ccccc(=O)c1O [3-[(E)-3-(2-chlorophenyl)prop-2-enoyl]-2-oxidanyl-cyclohepta-2,4,6-trien-1-one]",9.01
13,CC1=CC(=O)c2c(O)ccc(O)c2C1=O [MLS001048870],2.87
14,"Cc1ccc(-c2c3c([nH]c(=S)c2C#N)CCCC3)o1 [4-(5-methylfuran-2-yl)-2-sulfanylidene-5,6,7,8-tetrahydro-1H-quinoline-3-carbonitrile]",8.21
15,Cc1nnc(Sc2cc(NCCCO)c([N+](=O)[O-])c3nonc23)s1 [MLS000674027],0.13
16,C=CS(=O)(=O)c1sc(Cl)c(N2CCOCC2)c1[N+](=O)[O-] [4-(2-chloranyl-5-ethenylsulfonyl-4-nitro-thiophen-3-yl)morpholine],5.46
17,O=C1C(Cl)=C(N2CCN(c3ccccc3[N+](=O)[O-])CC2)C(=O)c2ccccc21,0.36

row,SMILES,EC50 [µM]
1,"O=C(NC1=C(NC2CCS(=O)(=O)C2)C(=O)c2ccccc2C1=O)c1ccccc1 (centres undefined) [N-[3-[(1,1-dioxo-3-thiolanyl)amino]-1,4-dioxo-2-naphthalenyl]benzamide]",6.59
2,"CNc1ccc(Br)cc(C(=O)/C=C/c2cccc(OC)c2OC)c1=O [4-bromanyl-2-[(E)-3-(2,3-dimethoxyphenyl)prop-2-enoyl]-7-(methylamino)cyclohepta-2,4,6-trien-1-one]",8.38
3,"CC(=O)NC1=C(NC2CCS(=O)(=O)C2)C(=O)c2ccccc2C1=O (centres undefined) [N-[3-[(1,1-dioxothiolan-3-yl)amino]-1,4-dioxonaphthalen-2-yl]acetamide]",1.55
4,O=C(Nc1ccc2nc(-c3ccco3)c(-c3ccco3)nc2c1)N1CCCCCC1,0.92
5,CCOc1ccccc1CNc1ccc(O)cc1,1.13
6,O=[N+]([O-])c1c(NCCCO)cc(Sc2nc3ccccc3s2)c2nonc12 [MLS000520994],0.61
7,CN(CCO)c1cc(Sc2nc3ccccc3s2)c2nonc2c1[N+](=O)[O-] [MLS000520995],1.48
8,Nc1c(C(=O)NCC2CCCO2)sc2nc3c(c(-c4ccco4)c12)CC/C3=C\c1ccco1 (centres undefined) [SMR000259502],0.87
9,"CC(C)(C)NC(=O)COc1ccc(CNc2ccc3[nH]c(O)nc3c2)cc1 [N-tert-butyl-2-[4-[[(2-oxidanylidene-1,3-dihydrobenzimidazol-5-yl)amino]methyl]phenoxy]ethanamide]",2.87
10,Cc1ccc(/C=C/C(=O)Nc2ccc([N+](=O)[O-])c(NC(=O)/C=C/c3ccc(C)o3)c2)o1 [MLS000578867],0.83
11,CC(=NNC(=O)c1cc(O)c(O)c(O)c1)c1ccc([N+](=O)[O-])cc1 [SMR000312589],6.78
12,O=C(O)c1ccc(NC2=CC(=NS(=O)(=O)c3ccccc3)c3ccccc3C2=O)cc1 [SMR000313157],9.21
13,"COc1ccc(N2C(=O)C(=Nc3c(C)n(C)n(-c4ccccc4)c3=O)C(Cl)C2=O)cc1 (centres undefined) [3-chloranyl-4-[(1,5-dimethyl-3-oxidanylidene-2-phenyl-pyrazol-4-yl)amino]-1-(4-methoxyphenyl)pyrrole-2,5-dione]",12
14,"Cc1cc(C)c(S(=O)(=O)N=C2C=C(SCC(=O)O)C(=O)c3ccccc32)cc1C [2-[1-oxidanylidene-4-(2,4,5-trimethylphenyl)sulfonylimino-naphthalen-2-yl]sulfanylethanoic acid]",8.24
15,CCN1/C(=C/C(C)=C/c2sc3ccccc3[n+]2CC)Sc2ccccc21 [SMR000354813],41.1
16,"Cc1ccc(/C=C/C2=Cc3c(sc(NC(=O)CSc4nnc(N)[nH]4)c3C#N)C(C)(C)C2)o1 [2-[(5-azanyl-1H-1,2,4-triazol-3-yl)sulfanyl]-N-[3-cyano-7,7-dimethyl-5-[(E)-2-(5-methylfuran-2-yl)ethenyl]-6H-1-benzothiophen-2-yl]ethanamide]",4.19
17,Cc1cccc(N2C(=S)C(C#N)C(=O)NC2c2cccs2)c1 (centres undefined),18.3
